Counter-ions that a name gives are not always drawn.
What was measured:
Human FXIIa = Human FXIIa (Homo sapiens (Human), UniProt P00748); experiment: Factor XIIa (FXIIa) inhibitory activity, chromogenic substrate (Pefachrome XIIa) cleavage; format: biochemical; conditions: 10 min pre-incubation, Pefachrome XIIa 400 μM
Human alpha-thrombin = Human alpha-thrombin (Homo sapiens (Human), UniProt P00734); experiment: Thrombin counterscreen for selectivity, fluorogenic substrate cleavage; format: biochemical; conditions: 10 min pre-incubation, Boc-Val-Pro-Arg-AMC 20 μM

Sequence of Human FXIIa (P00748 373-615): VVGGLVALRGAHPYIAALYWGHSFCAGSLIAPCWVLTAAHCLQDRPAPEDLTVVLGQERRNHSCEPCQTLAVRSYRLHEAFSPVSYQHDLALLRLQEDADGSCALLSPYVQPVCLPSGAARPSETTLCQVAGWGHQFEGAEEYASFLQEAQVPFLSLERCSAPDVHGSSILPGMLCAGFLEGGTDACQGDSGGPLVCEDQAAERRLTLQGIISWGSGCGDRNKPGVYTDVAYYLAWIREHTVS
Sequence of Human FXIIa (P00748 20-372 partner): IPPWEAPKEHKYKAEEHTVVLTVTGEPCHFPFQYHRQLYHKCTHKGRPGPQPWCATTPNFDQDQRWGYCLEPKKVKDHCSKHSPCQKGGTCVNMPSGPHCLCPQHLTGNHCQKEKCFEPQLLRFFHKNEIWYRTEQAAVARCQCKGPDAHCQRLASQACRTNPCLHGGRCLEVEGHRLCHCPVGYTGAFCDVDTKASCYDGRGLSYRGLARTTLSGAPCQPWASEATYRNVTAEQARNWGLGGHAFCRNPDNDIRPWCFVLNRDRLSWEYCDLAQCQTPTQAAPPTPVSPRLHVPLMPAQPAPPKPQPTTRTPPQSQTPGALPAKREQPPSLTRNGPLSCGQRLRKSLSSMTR

| SMILES | IC50 (Human FXIIa) [µM] | IC50 (Human alpha-thrombin) [µM] |
| --- | --- | --- |
| CNC(=O)N1CCc2c(N)nn(C(=O)C3CCNc4ccccc43)c2C1 (stereo not drawn) [Example 113, 3-amino-N-methyl-1-(1,2,3,4-tetrahydro-quinoline-4-carbonyl)-4,5-dihydro-1H-pyrazolo[3,4-c]pyridine-6(7H)-carboxamide] | 95 | > 100 |
| Nc1c2c(nn1C(=O)C1CCNc3ccccc31)CN(C(=O)OCc1ccccc1)CC2 (stereo not drawn) [Example 116, benzyl 3-amino-2-(1,2,3,4-tetrahydro-quinoline-4-carbonyl)-4,5-dihydro-2H-pyrazolo[3,4-c]pyridine-6(7H)-carboxylate] | 1 | 17 |
| Nc1nn(C(=O)C2CCNc3ccccc32)c2c1CCN(C(=O)OCc1ccccc1)C2 (stereo not drawn) [Example 117, benzyl 3-amino-1-(1,2,3,4-tetrahydro-quinoline-4-carbonyl)-4,5-dihydro-1H-pyrazolo[3,4-c]pyridine-6(7H)-carboxylate] | 45 | 5 |
| Nc1c2c(nn1C(=O)C1CCNc3ccccc31)CNCC2 (stereo not drawn) [Example 118, (3-amino-4,5,6,7-tetrahydro-pyrazolo[3,4-c]pyridin-2-yl)(1,2,3,4-tetrahydro-quinolin-4-yl)methanone] | 0.6 | > 100 |
| CCC(=O)N1CCc2c(nn(C(=O)C3CCNc4ccccc43)c2N)C1 (stereo not drawn) [Example 119, 1-(3-amino-2-(1,2,3,4-tetrahydro-quinoline-4-carbonyl)-4,5-dihydro-2H-pyrazolo[3,4-c]pyridin-6(7H)-yl)propan-1-one] | 0.45 | > 85 |
| CCC(=O)N1CCc2c(N)nn(C(=O)C3CCNc4ccccc43)c2C1 (stereo not drawn) [Example 120, 1-(3-amino-1-(1,2,3,4-tetrahydro-quinoline-4-carbonyl)-4,5-dihydro-1H-pyrazolo[3,4-c]pyridin-6(7H)-yl)propan-1-one] | 15 | > 75 |
| CCS(=O)(=O)N1CCc2c(N)nn(C(=O)C3CCNc4ccccc43)c2C1 (stereo not drawn) [Example 126, (3-amino-6-(ethylsulfonyl)-4,5,6,7-tetrahydro-pyrazolo[3,4-c]pyridin-1-yl)(1,2,3,4-tetrahydro-quinolin-4-yl)methanone] | 32 | > 70 |
| CC(C)S(=O)(=O)N1CCc2c(N)nn(C(=O)C3CCNc4ccccc43)c2C1 (stereo not drawn) [Example 128, (3-amino-6-(isopropyl-sulfonyl)-4,5,6,7-tetrahydro-pyrazolo[3,4-c]pyridin-1-yl)(1,2,3,4-tetrahydro-quinolin-4-yl)methanone] | 28 | > 65 |
| Nc1c2c(nn1C(=O)C1CCNc3ccc(F)cc31)CN(S(=O)(=O)c1cccnc1)CC2 (stereo not drawn) [Example 157, (3-amino-6-(pyridin-3-ylsulfonyl)-4,5,6,7-tetrahydro-pyrazolo[3,4-c]pyridin-2-yl)(6-fluoro-1,2,3,4-tetrahydro-quinolin-4-yl)methanone] | 0.7 | 15 |
| Nc1c2c(nn1C(=O)C1CCNc3ccc(F)cc31)CN(c1ccccn1)CC2 (stereo not drawn) [Example 167, (3-amino-6-(pyridin-2-yl)-4,5,6,7-tetrahydro-pyrazolo[3,4-c]pyridin-2-yl)(6-fluoro-1,2,3,4-tetrahydro-quinolin-4-yl)methanone] | 60 | > 120 |
| CS(=O)(=O)N1CCc2c(nn(C(=O)C3CCNc4ccc(-c5ccncc5)cc43)c2N)C1 (stereo not drawn) [Example 168, (3-amino-6-(methylsulfonyl)-4,5,6,7-tetrahydro-pyrazolo[3,4-c]pyridin-2-yl)(6-(pyridin-4-yl)-1,2,3,4-tetrahydro-quinolin-4-yl)methanone] | 2 | 3.5 |
| CS(=O)(=O)N1CCc2c(N)nn(C(=O)C3CCNc4ccc(-c5ccncc5)cc43)c2C1 (stereo not drawn) [Example 169, (3-amino-6-(methylsulfonyl)--4,5,6,7-tetrahydro-pyrazolo[3,4-c]pyridin-1-yl)(6-(pyridin-4-yl)-1,2,3,4-tetrahydro-quinolin-4-yl)methanone] | 15 | 15 |

More lines, now with the values ahead:

| IC50 (Human FXIIa) [µM] | IC50 (Human alpha-thrombin) [µM] | SMILES |
| --- | --- | --- |
| 0.45 | > 80 | COC(=O)N1CCc2c(nn(C(=O)C3CCNc4ccccc43)c2N)C1 (stereo not drawn) [Example 114, methyl 3-amino-2-(1,2,3,4-tetrahydro-quinoline-4-carbonyl)-4,5-dihydro-2H-pyrazolo[3,4-c]pyridine-6(7H)-carboxylate] |
| 0.4 | > 80 | CC(C)C(=O)N1CCc2c(nn(C(=O)C3CCNc4ccccc43)c2N)C1 (stereo not drawn) [Example 121, 1-(3-amino-2-(1,2,3,4-tetrahydro-quinoline-4-carbonyl)-4,5-dihydro-2H-pyrazolo[3,4-c]pyridin-6(7H)-yl)-2-methylpropan-1-one] |
| 0.35 | > 80 | CN(C)C(=O)N1CCc2c(nn(C(=O)C3CCNc4ccccc43)c2N)C1 (stereo not drawn) [Example 123, 3-amino-N,N-dimethyl-2-(1,2,3,4-tetrahydro-quinoline-4-carbonyl)-4,5-dihydro-2H-pyrazolo[3,4-c]pyridine-6(7H)-carboxamide] |
| 0.25 | 100 | CCS(=O)(=O)N1CCc2c(nn(C(=O)C3CCNc4ccccc43)c2N)C1 (stereo not drawn) [Example 125, (3-amino-6-(ethylsulfonyl)-4,5,6,7-tetrahydro-pyrazolo[3,4-c]pyridin-2-yl)(1,2,3,4-tetrahydro-quinolin-4-yl)methanone] |
| 0.2 | > 70 | CC(C)S(=O)(=O)N1CCc2c(nn(C(=O)C3CCNc4ccccc43)c2N)C1 (stereo not drawn) [Example 127, (3-amino-6-(isopropyl-sulfonyl)-4,5,6,7-tetrahydro-pyrazolo[3,4-c]pyridin-2-yl)(1,2,3,4-tetrahydro-quinolin-4-yl)methanone] |
| 0.08 | > 55 | CC(C)S(=O)(=O)N1CCc2c(nn(C(=O)C3CCNc4ccc(F)cc43)c2N)C1 (stereo not drawn) [Example 136, (3-amino-6-(isopropyl-sulfonyl)-4,5,6,7-tetrahydro-pyrazolo[3,4-c]pyridin-2-yl)(6-fluoro-1,2,3,4-tetrahydro-quinolin-4-yl)methanone] |
| 0.08 | > 100 | CC(C)(C)S(=O)(=O)N1CCc2c(nn(C(=O)C3CCNc4ccc(F)cc43)c2N)C1 (stereo not drawn) [Example 138, (3-amino-6-(tert-butylsulfonyl)-4,5,6,7-tetrahydro-pyrazolo[3,4-c]pyridin-2-yl)(6-fluoro-1,2,3,4-tetrahydro-quinolin-4-yl)methanone] |
| 0.13 | 60 | Nc1c2c(nn1C(=O)C1CCNc3ccc(F)cc31)CN(S(=O)(=O)CF)CC2 (stereo not drawn) [Example 140, (3-amino-6-(fluoromethyl-sulfonyl)-4,5,6,7-tetrahydro-pyrazolo[3,4-c]pyridin-2-yl)(6-fluoro-1,2,3,4-tetrahydro-quinolin-4-yl)methanone] |
| 0.2 | 40 | Nc1c2c(nn1C(=O)C1CCNc3ccc(F)cc31)CN(S(=O)(=O)CC(F)F)CC2 (stereo not drawn) [Example 142, (3-amino-6-(2,2-difluoroethyl-sulfonyl)-4,5,6,7-tetrahydro-pyrazolo[3,4-c]pyridin-2-yl)(6-fluoro-1,2,3,4-tetrahydro-quinolin-4-yl)methanone] |
| 0.23 | > 80 | Nc1c2c(nn1C(=O)C1CCNc3ccc(F)cc31)CN(S(=O)(=O)C1CC1)CC2 (stereo not drawn) [Example 144, (3-amino-6-(cyclopropyl-sulfonyl)-4,5,6,7-tetrahydro-pyrazolo[3,4-c]pyridin-2-yl)(6-fluoro-1,2,3,4-tetrahydro-quinolin-4-yl)methanone] |
| 0.05 | 64 | CCCN1CCc2c(nn(C(=O)C3CCNc4ccc(F)cc43)c2N)C1 (stereo not drawn) [Example 149, (3-amino-6-propyl-4,5,6,7-tetrahydro-pyrazolo[3,4-c]pyridin-2-yl)(6-fluoro-1,2,3,4-tetrahydro-quinolin-4-yl)methanone] |
| 0.04 | > 70 | CC(C)N1CCc2c(nn(C(=O)C3CCNc4ccc(F)cc43)c2N)C1 (stereo not drawn) [Example 151, Formic Acid salt of (3-amino-6-isopropyl-4,5,6,7-tetrahydro-pyrazolo[3,4-c]pyridin-2-yl)(6-fluoro-1,2,3,4-tetrahydro-quinolin-4-yl)methanone] |
| 0.05 | > 100 | CC(C)CN1CCc2c(nn(C(=O)C3CCNc4ccc(F)cc43)c2N)C1 (stereo not drawn) [Example 153, (3-amino-6-isobutyl-4,5,6,7-tetrahydro-pyrazolo[3,4-c]pyridin-2-yl)(6-fluoro-1,2,3,4-tetrahydro-quinolin-4-yl)methanone] |
| 0.13 | 70 | Nc1c2c(nn1C(=O)C1CCNc3ccc(F)cc31)CN(S(=O)(=O)C(F)F)CC2 (stereo not drawn) [Example 159, (3-amino-6-(difluoromethyl-sulfonyl)-4,5,6,7-tetrahydro-pyrazolo[3,4-c]pyridin-2-yl)(6-fluoro-1,2,3,4-tetrahydro-quinolin-4-yl)methanone] |
| 0.05 | 20 | CCN1CCc2c(nn(C(=O)C3CCNc4ccc(Cl)cc43)c2N)C1 (stereo not drawn) [Example 161, (3-amino-6-ethyl-4,5,6,7-tetrahydro-pyrazolo[3,4-c]pyridin-2-yl)(6-chloro-1,2,3,4-tetrahydro-quinolin-4-yl)methanone] |
| 0.03 | > 100 | CCN1CCc2c(nn(C(=O)C3CCNc4ccc(F)cc43)c2N)C1 (stereo not drawn) [Example 163, (3-amino-6-ethyl-4,5,6,7-tetrahydro-pyrazolo[3,4-c]pyridin-2-yl)(6-fluoro-1,2,3,4-tetrahydro-quinolin-4-yl)methanone] |
| 0.17 | > 80 | Cc1cccc2c1NCCC2C(=O)n1nc2c(c1N)COCC2 (stereo not drawn) [Example 188, (3-amino-6,7-dihydropyrano[4,3-c]pyrazol-2(4H)-yl)(8-methyl-1,2,3,4-tetrahydro-quinolin-4-yl)methanone] |
| 0.16 | 70 | Nc1c2c(nn1C(=O)C1CCNc3ccc(F)cc31)COCC2 (stereo not drawn) [Example 194, (3-amino-4,5-dihydropyrano[3,4-c]pyrazol-2(7H)-yl)(6-fluoro-1,2,3,4-tetrahydro-quinolin-4-yl)methanone] |
